Residues, ends and D or L forms follow the SMILES beside them.
Key:
[1] = tested on: New Zealand white rabbits; assay: Acute myocardial infarction injury in a rabbit model; type: in vivo; settings: IV infusion, 30-minute ischemia, 3 hours post-reperfusion
Experimental: New Zealand white rabbits will be used in this study. The rabbits will be males and >10 weeks in age. Environmental controls in the animal rooms will be set to maintain temperatures of 61° to 72° F. and relative humidity between 30% and 70%. Room temperature and humidity will be recorded hourly, and monitored daily. There will be approximately 10-15 air exchanges per hour in the animal rooms. Photoperiod will be 12-hr light/12-hr dark (via fluorescent lighting) with exceptions as necessary to accommodate dosing and data collection. Routine daily observations will be performed. Harlan Teklad, Certified Diet (2030C), rabbit diet will be provided approximately 180 grams per day from arrival to the facility. In addition, fresh fruits and vegetables will be given to the rabbit 3 times a week. […]
In all cases, treatments will be started approximately 30 minutes after the onset of a 30-minute ischemic insult (coronary occlusion) and continued for up to 3 hours following reperfusion. In all cases, cardiovascular function will be monitored both prior to and during ischemia, as well as for up to 180 minutes (3 hours) post-reperfusion. The experiments will be terminated 3 hours post-reperfusion (end of study); irreversible myocardial injury (infarct size by histomorphometery) at this time-point will be evaluated, and will be the primary-end-point of the study.

SN-4741 cells = assay: Example 31: MPP^+ toxicity (Hoechst 33342); type: cell-based; settings: 50 μM MPP^+, 48 hours
Experimental: SN-4741 cells will be treated with buffer; 50 μM MPP^+; 50 μM MPP^+ and peptide conjugates; 50 μM MPP^+ and aromatic-cationic peptides; or 50 μM MPP^+ and SPN10(s); or 50 μM MPP^+ and SPN10(s) with aromatic-cationic peptides for 48 hours. Apoptosis will be measured by fluorescent microscopy with Hoechst 33342.

Sprague-Dawley rats = assay: Example 38: acute renal injury caused by unilateral ureteral obstruction (UUO); type: in vivo, rat
Experimental: Sprague-Dawley rats will undergo unilateral ureteral ligation with a 4-0 silk suture through a midline abdominal incision under sterile conditions. Ureteral obstruction will be carried out by ligating the lower end of the left ureter, just above the ureterovesical junction. Peptide conjugates (1 mg/kg or 3 mg/kg; n=16); aromatic-cationic peptides (an equivalent molar dose of aromatic-cationic peptide based on the concentration of the aromatic-cationic peptide administered in the peptide conjugate treatment group); SPN10(s) (an equivalent molar dose of SPN10 based on the concentration of SPN10 administered in the peptide conjugate treatment group); SPN10(s) in combination with aromatic-cationic peptides (e.g., an equivalent molar dose of SPN10 based on the concentration of SPN10 administered in the peptide conjugate treatment group and an equivalent molar dose of aromatic-cationic peptide based on the concentration of aromatic-cationic peptide administered in the peptide conjugate treatment group); or control vehicle (n=16) will be administered intraperitoneally, one day prior to UUO and continuing for 14 days following UUO.
Renal Histology: Trichrome sections of paraffin embedded specimens will be examined by a board-certified pathologist (SVS, renal pathology specialist), and fibrosis scored on a scale of 0—+++.
Immunohistochemical Analysis: Immunohistochemical staining for macrophages will be carried out using a monoclonal antibody to ED-1 as previously described. Macrophages will be counted in 10 high-power fields (×400) by two independent investigators in a blinded fashion. Apoptosis will be measured by TUNEL assay as described in Example 37. The presence of fibroblasts will be examined using immunohistochemistry, as described above, using the DAKO #S100-A4 antibody (1:100 dilution). Antigen will be retrieved by incubating cells with Proteinase K for 20 minutes. The remaining immunoperoxidase protocol will be carried out according to routine procedures.
It is expected that S100-A4 staining will be present in spindle-shaped interstitial cells and round, inflammatory cells. Only spindle-shaped cells will be quantified. Staining for 8-OH dG will be done using Proteinase K for antigen retrieval and an antibody provided by the Japan Institute Control of Aging at a dilution of 1:200-1:500.
Polymerase Chain Reaction Analysis: Renal expression of heme oxygenase-1 (HO-1) will be measured by RT-PCR according to the following: Rat kidneys will be harvested and stored at −80° C. until use. Total RNA will be extracted using the Trizol (R)-Chloroform extraction procedure, and mRNA will be purified using the Oligotex mRNA extraction kit (Qiagen, Valencia, California, U.S.A.) according to manufacturer instructions. mRNA concentration and purity will be determined by measuring absorbance at 260 nm. RT-PCR will be performed using Qiagen One-step PCR kit (Qiagen, Valencia, California, U.S.A.) and an automated thermal cycler (ThermoHybrid, PX2). Thermal cycling will be carried out as follows: initial activation step for 15 minutes at 95° C. followed by 35 cycles of denaturation for 45 seconds at 94° C., annealing for 30 seconds at 60° C., extension for 60 seconds at 72° C. Amplification products will be separated on a 2% agarose gel electrophoresis, visualized by ethidium bromide staining, and quantified using Image J densitometric analysis software. GAPDH will be used as an internal control.

N=C(N)NCCC[C@H](NC(=O)[C@@H](N)Cc1c[nH]c2ccccc12)C(=O)N[C@@H](Cc1c[nH]c2ccccc12)C(=O)N[C@@H](CCCCN)C(N)=O [SPN10, H-L-Trp-L-Arg-L-Trp-L-Lys-NH2] (H-WRWK-NH2)
infarct size compared to the vehicle control group [1]: decreased infarct size | number of apoptotic cells after MPP^+ (SN-4741 cells): reduce the number of apoptotic cells | tubular cell proliferation at the 1 mg/kg dose (Sprague-Dawley rats; 1 mg/kg): decreased | fibroblast infiltration in obstructed kidneys (FSP-1) (Sprague-Dawley rats; 1 mg/kg (conjugate) or equivalent molar dose): significantly decrease the amount of fibroblast infiltration | tubular apoptosis in obstructed kidneys (Sprague-Dawley rats; 1 mg/kg (conjugate) or equivalent molar dose, 2 weeks of UUO): significantly decrease tubular apoptosis | macrophage infiltration in obstructed kidneys (Sprague-Dawley rats; 1 mg/kg or 3 mg/kg (conjugate) or equivalent molar dose): significantly decrease macrophage infiltration | tubular cell proliferation at the 3 mg/kg dose (Sprague-Dawley rats; 3 mg/kg): further decreased | trichrome staining (fibrosis score), cortex of obstructed kidney (Sprague-Dawley rats; 14 days UUO): 0-trace | trichrome staining (fibrosis score), medulla of obstructed kidney (Sprague-Dawley rats; 14 days UUO): tr—1+ | HO-1 expression in the obstructed kidney (Sprague-Dawley rats; RT-PCR): decrease HO-1 expression | medullary fibrosis (Sprague-Dawley rats; rat, in vivo): decrease medullary fibrosis | number of 8-OH dG positive cells (Sprague-Dawley rats; rat, in vivo): significantly reduced | renal tubular proliferation in obstructed kidneys (PCNA) (Sprague-Dawley rats; rat, in vivo): significant decrease in renal tubular proliferation
